According to PubChem BioAssay (NCI):
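Results reflect a 48-hour exposure of cells in 96-well plates to compound at five concentrations. GI50 is the concentration that inhibits growth by half. TGI denotes the concentration required for complete inhibition of growth.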 *1 amine or outer side, *2 acyl side, *3 side chain or, on linkers, in order; H or OH if unused. Where a SMILES comes first, the peptide text is derived from it. [ ]: non-standard residue; d: D form. The star is where a group is joined. X31 = CC(=O)N(C)SCC(N[*:1])C(=O)[*:2]; Fmoc = O=C(OCC1c2ccccc2-c2ccccc21)*; For = O=C*

Experiments:
Experiment in all cases: NCI tumour cell line growth inhibition, 48 h
786-0 renal = system: 786-0 renal
A549 NSCLC = system: A549 NSCLC
HL-60(TB) leukemia = system: HL-60(TB) leukemia
M14 melanoma = system: M14 melanoma
MALME-3M melanoma = system: MALME-3M melanoma
MOLT-4 leukemia = system: MOLT-4 leukemia
NCI-H226 lung = system: NCI-H226 lung
OVCAR-4 ovarian = system: OVCAR-4 ovarian
SF-295 CNS = system: SF-295 CNS
SNB-19 CNS = system: SNB-19 CNS

Compound | TGI (786-0 renal) [µM] | TGI (A549 NSCLC) [µM] | TGI (HL-60(TB) leukemia) [µM] | TGI (M14 melanoma) [µM] | TGI (MALME-3M melanoma) [µM] | TGI (MOLT-4 leukemia) [µM] | TGI (NCI-H226 lung) [µM] | TGI (OVCAR-4 ovarian) [µM] | TGI (SF-295 CNS) [µM] | TGI (SNB-19 CNS) [µM] | GI50 (A549 NSCLC) [µM] | GI50 (HL-60(TB) leukemia) [µM] | GI50 (M14 melanoma) [µM] | GI50 (MALME-3M melanoma) [µM] | GI50 (MOLT-4 leukemia) [µM] | GI50 (NCI-H226 lung) [µM] | GI50 (OVCAR-4 ovarian) [µM] | GI50 (SF-295 CNS) [µM]
O=C1c2ccccc2C(=O)c2c(O)c(NCCNCCO)cc(O)c21 | 14.1 | 13.5 | 14.1 | 16 | 26.5 | 10.4 | 14.9 | 15.7 | 22.2 | 11.8 |  |  |  |  |  |  |  | 
Cc1nc(Nc2nc3ccccc3[nH]2)[nH]c(=O)c1CCO | > 100 | > 100 | > 100 | 98.9 | > 71.5 | > 100 | > 96 | > 100 | > 100 | > 100 |  |  |  |  |  |  |  | 
S=C(Nc1cccc(C2(N3CCCCC3)CCCCC2)c1)Nc1cccc(C2(N3CCCCC3)CCCCC2)c1 | 30.5 | > 100 | 38.2 | 35.5 | 36.1 | 42.8 | 78.5 | > 100 | > 100 | > 100 |  |  |  |  |  |  |  | 
CC1=C(C(=O)NC(C)(C)C)CC(C(=O)NC(C)(C)C)C(C)N1 (configuration not stated) | > 100 | > 100 | > 100 | > 100 |  | > 100 | > 100 | > 100 | > 100 | > 100 |  |  |  |  |  |  |  | 
Cc1[nH]c2ccccc2c1C1=CC(=O)N(c2ccccc2)C1=O | 31.4 | > 100 | 39 | 32.2 | 41.9 | > 100 | 88.4 |  | > 100 | > 100 |  |  |  |  |  |  |  | 
CCCc1cc(-c2ccc(-c3cc(CCC)c(C=O)[nH]3)s2)[nH]c1C=O | > 100 | 22.7 | > 48.8 | > 100 | > 100 | > 100 | > 100 | > 100 | > 92.4 | > 100 |  |  |  |  |  |  |  | 
CN(C)Cc1[nH]c2ccccc2c1C(=O)c1ccccc1 | > 100 | > 100 | > 100 | > 100 | > 100 | > 100 | > 100 | > 100 | > 100 | > 100 |  |  |  |  |  |  |  | 
COc1ccccc1Cn1[nH]c(=O)c2cc([N+](=O)[O-])ccc21 | > 100 | > 100 | > 100 | > 100 | > 100 | > 100 | > 100 | > 100 |  | > 100 |  |  |  |  |  |  |  | 
CC(=O)N(C)SCC(NC(=O)C(Cc1ccccc1)NC(=O)OCC1c2ccccc2-c2ccccc21)C(=O)NC(Cc1ccccc1)C(=O)NC(Cc1cn(C=O)c2ccccc12)C(=O)NC(CCCCNC(=O)OCC1c2ccccc2-c2ccccc21)C(=O)NC(C(=O)NC(CSN(C)C(C)=O)C(=O)NC(C(N)=O)C(C)O)C(C)O (configuration not stated) (Fmoc-F[X31]FW(For)K(Fmoc)T[X31]T-NH2; configuration not given here) | > 100 | > 100 | > 100 | > 100 | > 100 | > 100 | > 100 | > 100 | > 100 | > 100 |  |  |  |  |  |  |  | 
COc1ccc(C2C(Cl)C(=O)N2NC(=O)c2ccccc2O)cc1OC (configuration not stated) | > 100 | > 100 | > 100 | > 100 | > 100 | > 100 | > 100 | > 100 | > 100 | > 100 |  |  |  |  |  |  |  | 
CC(=O)/C(=C(/Br)I)c1ccccc1 | 28 | 51.7 | 4.95 | 21.3 | 23.1 | 20.5 | 27.2 | 25 | 29 | 37.5 |  |  |  |  |  |  |  | 
CC(=O)C1=NN(c2ccccc2)C2(S1)SC(c1ccccc1)(c1ccccc1)c1ccccc12 (configuration not stated) | > 100 | > 100 | > 100 | > 100 | > 100 | > 100 | > 100 | 79.6 | > 100 | > 100 |  |  |  |  |  |  |  | 
O=C(O)CN=c1c2ccccc2n(O)c2ccccc12 | > 100 | > 100 | 43 | > 100 | > 100 | > 100 | > 100 | > 100 | > 100 | > 100 |  |  |  |  |  |  |  | 
Cc1ccc(S(=O)(=O)Nc2cc(Sc3ccccc3)c(O)c3ccccc23)cc1 |  | 28.5 | 4.13 | 19.9 | 19.6 | 5.62 | 39.3 | 2.95 | 26.8 |  | 12.3 | 1.57 | 6.49 | 7.17 | 1.96 | 14.7 | 1.59 | 12.9
CC(=O)C1C(=O)C(=O)N(c2ccc(Br)cc2)C1=O (configuration not stated) | > 100 | > 100 | > 100 | > 100 |  | > 100 | > 100 | > 100 | > 100 | > 100 |  |  |  |  |  |  |  | 
O=C(Nc1ccc(S(=O)(=O)Nc2ncccn2)cc1)c1c2ccccc2nc2ccccc12 | > 100 | > 100 | > 100 | > 100 | > 100 | > 100 | > 100 | > 100 | > 100 | > 100 |  |  |  |  |  |  |  | 
Nc1nc(NCCOCP(=O)(O)O)c(N)c(=O)[nH]1 | > 100 | > 100 | > 100 | > 100 | > 100 | > 100 | > 100 | > 100 | > 100 | > 100 |  |  |  |  |  |  |  | 
Cc1ncc(CO)c(C=NCCCCCCN=Cc2c(CO)cnc(C)c2O)c1O | > 100 | > 100 | > 100 | > 100 | > 100 | > 100 | > 100 | > 100 | > 100 | > 100 |  |  |  |  |  |  |  | 
Oc1ccccc1-n1nc2ccc3nonc3c2n1 | > 100 | > 100 | > 100 | > 100 | > 100 | > 100 | > 100 | > 100 | > 100 | > 100 |  |  |  |  |  |  |  | 
CCN1C(=O)CS/C1=N\NC(=O)CSc1nc2ccccc2c(=O)n1CC | > 100 | > 100 | > 100 | > 100 | > 100 | > 100 | > 100 | > 100 | > 100 | > 100 |  |  |  |  |  |  |  | 
